Where two headings read alike, the source gives them in different places.
Tests used:
[1] = tested on: Deroceras reticulatum slugs; experiment: Glasshouse study of slug feeding damage on growing pea plants; type: in vivo; settings: 2nd day of test
Description: A suitable experimental design had to be substituted for this glasshouse study, based on the principles to show avoidance behaviour. This was also remarkably achieved on a five point scale to record slug behaviour, under a simple experimental procedure which lasted for only five days, to conclude this semi-field trial just by using the existing facilities alone at […] Housewares Ltd who manufactured their items for supermarket sale, provided plastic bowls in different colours to suit a random style experiment to show this current field study inside the glasshouse. Whifford Plastics Ltd produced fluon, a test chemical which had been used before to stop slugs from escaping the planned experiment in Cardiff University, was sold in litres sufficient to cover the sides of these plastic bowls by using only a simple paint brush. F. A Smith a soil merchant supplying for Cardiff University Horticultural services at Talybont, produced John Innes Potting compost No 2 commonly used in a nursery for growing peas, ideally because the sterilised soil with peat and grit added has a base fertiliser for quick germination. […] To keep the peas nice and damp and the slugs happy, the multipurpose peat based compost from the local B&Q store was adequate to support the trays of peas inside the plastic bowls which was 2⁄3 filled with this moist peat and the tray positioned so that the rim is flush with the surface of the peat. All the slugs used in this experiment were collected from the fields around Talybont, where they were actively seen to be searching for food lurking under the plants during the early hours of the morning at sunrise and pre-starved for a further 24 hours at 15° C., 80% RH, 12 hour light: dark regime, prior to testing inside the glasshouse. These were also the same species of slugs causing contamination during the routine operation in […] has a latin name Deroceras reticulatum, already well known for its physical damage to other crops under use in the UK. […]

[2] = cited from earlier work
[3] = tested on: Deroceras reticulatum slugs; experiment: Petri dish choice test (control and test sector) with test solutions made from commercial organic acids; type: in vivo; settings: 24 hour period, n=10 replicates, laboratory
Description: Next, using the results obtained from Mass spectrometry to make up the test solutions with these organic acids, the behaviour of the slugs in the presence of beetle odours was now investigated. Initially this test was carried out inside the laboratory in the manner previously shown for pygidial secretions using a control and test sector to show the slug's choice overnight within a petri dish. […] However the results of all these tests still remains to be analysed and will appear in the PhD thesis only after using a computer software for image analysis.

Structure (SMILES)	Feeding damage by slugs on growing pea plants [1]	Solubility in water ([2]; 20° C.)	Avoidance of treated area (proportion of total area of petri dish covered by slug trails) [3]	Solubility in water ([2]; cold water)	Solubility in water ([2]; hot water)
C=C(C)C(=O)O [Methacrylic Acid]	damage was effectively reduced	9.7 g/100 ml (20° C.)			
O=CO [Formic Acid]			scare slugs stiff		
C/C=C(\C)C(=O)O [Tiglic Acid]	Concern			sparingly	soluble
CC(=O)O [Acetic Acid]	Concern				

— patent US20070134281A1, “Investigate the potential of using beetle odours to deter slugs in vining peas” (priority 2004, published 2007)
